According to publication PMC11272598, “RG7774 (Vicasinabin), an orally bioavailable cannabinoid receptor 2 (CB2R) agonist, decreases retinal vascular permeability, leukocyte adhesion, and ocular inflammation in animal models” (Frontiers in Pharmacology, 2024):

Columns and labels:
[1] = Parallel artificial membrane permeability assay (PAMPA); format: physicochemical
Method: A 96-well microtiter plate was filled with aqueous buffer (typically 0.05 M Tris, pH 7.4, or 0.05 M phosphate, pH 6.5) and covered with a filter plate in a sandwich construction. The hydrophobic filter material (Durapore/Millipore; pore size 0.22–0.45 μm) covering the first 48 wells (sample) was impregnated with 1%–20% lecithin dissolved in dodecane, hexadecane, and 1,9-decadiene. The filter cover for the remaining 48 wells (reference) was wetted with 4–5 μL of a 50% (v/v) methanol/buffer solution. The transfer of RG7774 and reference substances from the donor compartment, through the lipid-infused artificial membrane, into the acceptor compartment was initiated by transferring 100–200 μL of a 250 or 500 μM stock solution to filter plates covering the sample and reference wells, respectively. The maximum DMSO content of the stock solutions was 5%. The permeation coefficient (Peff) was determined as previously described by Kansy et al. 1998 [3].

[2] = tested on: LPS-induced vascular leakage; assay: LPS-induced vascular permeability in mice with EIU (fluorophotometry); format: in vivo, C57Bl6/J mice
Method: Twenty-four female C57Bl6/J mice, 10 weeks old and weighing 18–20 g (Charles River, Sulzfeld, Germany) were housed in individually ventilated GM500 cages (Tecniplast, Pontremoli, Italy) with a maximum density of n = 4 mice with the same litter and sex. The room was kept at 20°C–24°C with 50%–60% humidity and a 12/12 h light-dark cycle. Animals were held on a standard mouse diet with ad libitum access to food and water.
Mice were anesthetized with isoflurane 3% in 100% O2, a drop of 1% Novesin 0.4% (Omnivision, Pucheim, Germany) and a drop of Tropicamide 1% w/v (Bausch + Lomb Incorporated, Kingston, United Kingdom). Eyes were subsequently cleaned with povidone iodine 5% Ophthalmic Prep Solution (Alcon, Geneva, Switzerland) and were immediately pre-punctured with a 30-gauge needle. Both eyes were injected with a single 1 µL IVT injection of 1 ng LPS (Sigma-Aldrich, St. Louis, MO, United States) or a single injection of Dulbecco’s phosphate buffered saline (PBS) (Fisher Scientific, Schwerte, Germany) (vehicle control) using a Nanofil syringe connected to a 34-gauge needle.
Vehicle solution [w/w] was prepared using 0.1% hydroxyethyl cellulose, 1.0% polysorbate 80, 0.18% methylparaben, and 0.02% propylparaben in 10 mM citrate (pH 6.0). RG7774 (0.6 and 2.0 mg/mL) was added to freshly prepared vehicle, stirred on a magnetic stirrer for at least 15 min, and a volume of 5 mL/kg was administered directly to the stomach of each EIU mouse using a 1 mL syringe with an oral gavage needle. Gavage was performed twice daily (6 mg/kg/day BID and 20 mg/kg/day BID) on the evening and morning prior to LPS injection, on the evening after LPS injection, and on the morning before fluorophotometry.
Mice were anesthetized 24 h after receiving LPS or vehicle control using subcutaneous (SC) injections of fentanyl 0.05 mg/kg, medetomidine 0.5 mg/kg, and midazolam 5 mg/kg. […] Fundus infrared and fundus fluorescein angiography (FFA) images of both eyes were recorded 30 min later using optical coherence tomography (OCT)/FFA (Spectralis HRA-OCT, Heidelberg Engineering, Heidelberg, Germany) with a 55° lens focused on the optic nerve with the optic disc in the center of the image to obtain sharp images of the fundus. […] The supernatant (10 µL) was diluted in 990 µL PBS in a microcuvette (PS Micro Photometer Cuvette 2 mL, 10 mm × 10 mm × 45 mm; LP Italiana, Milan, Italy) and samples were analyzed in duplicate using the FM-2 Fluorotron (450–490 nm excitation; 520–600 nm emission detection). […]
To quantify fluorotron measurements, raw files were generated, exported as txt. files, and plotted using Microsoft Excel. The average area under the curve (AUC) was calculated for 5 steps in each of the regions of the scans corresponding to retina, vitreous, and anterior chamber peaks. […]

Cn1nnnc1Cn1nnc2c(N3CC[C@H](O)C3)nc(C(C)(C)C)nc21 [RG7774, (S)-1-(5-tert-butyl-3-[(1-methyl-1H-tetrazol-5-yl)methyl]-3H-[1,2,3]triazolo[4,5-d]pyrimidin-7-yl)pyrrolidin-3-ol]
PAMPA P eff [1]: 9.7 10^−6 cm s^−1 | PAMPA acceptor compartment [1]: 23% | PAMPA donor compartment [1]: 59% | PAMPA membrane [1]: 18% | reduction of LPS-induced vascular leakage in the retina versus vehicle control ([2]; 6 mg/kg/day oral BID): 102% | reduction of LPS-induced vascular leakage in the vitreous ([2]; 6 mg/kg/day oral BID): 74% | reduction of LPS-induced vascular leakage in the retina versus vehicle control ([2]; 20 mg/kg/day oral BID): 106% | reduction of LPS-induced vascular leakage in the vitreous ([2]; 20 mg/kg/day oral BID): 76%
